Experimental data taken from ChEMBL document CHEMBL1150618, “Isotactic polymethoxydienes from the Philippines sponge Myriastra clavosa” (J Nat Prod, 2002).
pIC50: −log10 of the molar value.

tested on: HCT-116; experiment: Cytotoxicity against human HCT116 cells; assay type: functional, cell-based

Structure (SMILES)	pIC50
C=CC[C@@H](C[C@@H](C[C@@H](C[C@@H](C[C@@H](C[C@@H](C[C@@H](C[C@@H](C[C@H](OC)/C(C)=C/CCCCC)OC)OC)OC)OC)OC)OC)OC)OC	4.07
C=CC[C@@H](C[C@@H](C[C@@H](C[C@@H](C[C@@H](C[C@@H](C[C@@H](C[C@@H](C[C@@H](C[C@H](OC)/C(C)=C/CCCCC)OC)OC)OC)OC)OC)OC)OC)OC)OC	4.12
C=CC[C@@H](C[C@@H](C[C@@H](C[C@@H](C[C@@H](C[C@@H](C[C@H](OC)/C(C)=C/CCCCC)OC)OC)OC)OC)OC)OC	3.92
C=CC[C@@H](C[C@@H](C[C@@H](C[C@@H](C[C@@H](C[C@@H](C[C@@H](C[C@H](OC)/C(C)=C/CCCCC)OC)OC)OC)OC)OC)OC)OC	3.97
C=CC[C@@H](C[C@@H](C[C@@H](C[C@@H](C[C@@H](C[C@@H](C[C@@H](C[C@@H](C[C@@H](C[C@@H](C[C@H](OC)/C(C)=C/CCCCC)OC)OC)OC)OC)OC)OC)OC)OC)OC)OC	4.04
